Measurements reported in patent US20240368109A1, “ALLOSTERIC MODULATORS OF NICOTINIC ACETYLCHOLINE RECEPTORS” (MERCK SHARP & DOHME LLC, priority 2021, published 2024).

Target: human α7 nAChR (Homo sapiens (Human), UniProt P36544)
Experiment: Automated patch-clamp electrophysiology functional assay (Assay A)
Type: cell-based
Conditions: IonFlux HT whole-cell population patch, HEK cells expressing human α7/RIC-3, 40 μM acetylcholine
Procedure: The α7 nAChR positive allosteric modulator (PAM) activity of the present compounds may be tested using assays known in the art. The α7 nAChR PAMs described herein have activities in an automated patch-clamp electrophysiology functional assay as described in the examples. The assay was performed using the IonFlux HT in a whole-cell, population patch configuration. See Golden et al. Assay Drug Dev. Technol. (2011) 9:608-619. The compounds were assessed for their ability to modulate the function of the human α7 nAChR stably expressed in a HEK cell line both in the presence, and in the absence of the natural α7 agonist acetylcholine. By performing a series of such measurements at different concentrations, the effective concentration of the α7 nAChR PAMs (EC50) was determined. See Spencer et al. Assay Drug Dev. Technol. (2012) 10:313-324.
Direct activation of α7 (agonism), and potentiation of acetylcholine-evoked α7 currents was determined as follows:
Automated Patch-Clamp Electrophysiology Functional Assay (Assay A)
Automated patch-clamp electrophysiology was performed using the IonFluxHT (Fluxion Biosciences Inc., San Francisco, CA) in the whole-cell, population patch configuration. Test compounds were assessed for their ability to modulate the function of the α7 nicotinic acetylcholine receptor both in the presence, and in the absence of the natural α7 agonist acetylcholine. A HEK cell line stably expressing both human RIC-3 and human α7 (PrecisION hnAChR α7/RIC-3, Eurofins Pharma, St. Charles, MO) was cultured in 175 cm^2 triple-layer tissue culture flasks to no more than 90% confluency in DMEM/F-12 growth media supplemented with 10% heat-inactivated fetal bovine serum, 1% non-essential amino acids, 0.625 μg/mL Puromycin, and 400 μg/mL Geneticin. Immediately prior to assay, cells were detached by first aspirating growth media, rinsing with Dulbecco's phosphate buffered saline, and then adding 10 mL of Accutase (Innovative Cell Technologies, San Diego, CA) to the flask and then incubating at 37° C. for 5 minutes. Detached cells were then recovered by the addition of 40 mL of CHO-serum-free media supplemented with 25 mM HEPES, and rocked gently in a 50 mL conical tube for 20 minutes prior to patch-clamp assay. After recovery, cells were pelleted by centrifugation at 1,000 RPM for 1 minute in a compact bench top centrifuge; recovery media was aspirated and cells were resuspended in external recording solution (150 mM NaCl, 5 mM KCl, 2 mM CaCl2), 1 mM MgCl2, 10 mM HEPES, 12 mM dextrose) to a density of 5.0×10^6 cells/mL. The cell suspension was added to the cell inlet wells on an IonFlux HT population patch plate which had previously been rinsed and primed with deionized H2O. Test compounds were serially diluted in DMSO and then resuspended to the final test concentration in external recording solution, with, or without 40 μM acetylcholine added to the external recording solution; test compounds were then transferred to the IonFlux HT population patch plate. Internal recording solution (110 mM TrisPO4, 28 mM TrisBase, 0.1 mM CaCl2), 2 mM MgCl2, 11 mM EGTA, 4 mM MgATP) was added to the internal recording solution inlet wells on the IonFlux HT patch plate previously loaded with cells and test compounds, and the plate loaded into the IonFlux HT instrument. A protocol was executed on the IonFlux HT to trap the cells, break into the cells, and establish the whole-cell recording configuration; cells were voltage-clamped at a holding potential of −60 mV for the duration of the experiment, all experiments were conducted at room temperature, and the IonFlux HT injection pressure was 8 psi for solution applications. Upon establishing the whole-cell configuration, external recording solution was perfused into the recording chambers for 120 seconds and then 40 μM acetylcholine was applied for 1 second and immediately washed off with external recording solution for 60 seconds. […]

human α7 nAChR, sequence (P36544 23-502): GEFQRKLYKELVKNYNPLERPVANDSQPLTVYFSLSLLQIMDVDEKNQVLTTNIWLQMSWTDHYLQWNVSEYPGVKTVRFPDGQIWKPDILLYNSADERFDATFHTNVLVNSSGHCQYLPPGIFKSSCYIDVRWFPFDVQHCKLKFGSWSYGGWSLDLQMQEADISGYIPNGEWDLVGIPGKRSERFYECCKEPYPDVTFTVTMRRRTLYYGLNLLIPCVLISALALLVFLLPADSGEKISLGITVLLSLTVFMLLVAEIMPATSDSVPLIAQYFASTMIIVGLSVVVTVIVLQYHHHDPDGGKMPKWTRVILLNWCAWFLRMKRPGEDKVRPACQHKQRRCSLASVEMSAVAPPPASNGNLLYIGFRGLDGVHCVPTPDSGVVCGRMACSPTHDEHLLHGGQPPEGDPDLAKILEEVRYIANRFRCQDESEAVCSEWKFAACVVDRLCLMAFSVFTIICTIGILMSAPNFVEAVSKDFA

Compound	EC50 (electrophysiology EC50 values) [nM]	EC50 (potency class) [nM]
O=C(N[C@@H](CO)C1CCCCC1)C1C2COc3ccccc3C21 (stereo partly drawn) [Example A6, exo-N-[(1R)-1-cyclohexyl-2-hydroxyethyl]-1,1a,2,7b-tetrahydrocyclopropa[c][1]benzopyran-1-carboxamide]	1100	500 to 5000
O=C(N[C@@H](C(F)F)C1CCCCC1)C1C2COc3ccc(F)cc3C21 (stereo partly drawn) [Example A7, exo-N-[(1R)-1-cyclohexyl-2,2-difluoroethyl]-6-fluoro-1,1a2,7b-tetrahydrocyclopropa[c][1]benzopyran-1-carboxamide]	800	500 to 5000
O=C(NC1(c2ccccc2)CCC1)C1C2COc3ccc(F)cc3C21 (stereo not drawn) [Example A8, exo-6-fluoro-N-(1-phenylcyclobutyl)-1,1a,2,7b-tetrahydrocyclopropa[c][1]benzopyran-1-carboxamide]	1000	500 to 5000
O=C(NC1(c2ccc(F)cc2)CC1)C1C2COc3ccc(F)cc3C21 (stereo not drawn) [Example A9, exo-6-fluoro-N-[1-(4-fluorophenyl)cyclopropyl]-1,1a,2,7b-tetrahydrocyclopropa[c][1]benzopyran-1-carboxamide]	1100	500 to 5000
COc1cc(C2(NC(=O)C3C4COc5ccccc5C43)CC2)ccn1 (stereo not drawn) [Example A10, exo-N-[1-(2-methoxypyridin-4-yl)cyclopropyl]-1,1a,2,7b-tetrahydrocyclopropa[c][1]benzopyran-1-carboxamide]		500 to 5000
CCOc1ccc(C2(NC(=O)C3C4COc5ccccc5C43)CCC2)cn1 (stereo not drawn) [Example A11, exo-N-[1-(6-ethoxypyridin-3-yl)cyclobutyl]-1,1a,2,7b-tetrahydrocyclopropa[c][1]benzopyran-1-carboxamide]	620	500 to 5000
COc1cc(C2(NC(=O)C3C4COc5ccccc5C43)CCC2)ccn1 (stereo not drawn) [Example A12, exo-N-[1-(2-methoxypyridin-4-yl)cyclobutyl]-1,1a,2,7b-tetrahydrocyclopropa[c][1]benzopyran-1-carboxamide]	1500	500 to 5000
CCOc1ccc([C@@H](NC(=O)C2C3COc4ccc(F)cc4C32)C(F)(F)F)cn1 (stereo partly drawn) [Example A13, exo-N-[(1R)-1-(6-ethoxypyridin-3-yl)-2,2,2-trifluoroethyl]-6-fluoro-1,1a,2,7b-tetrahydrocyclopropa[c][1]benzopyran-1-carboxamide]	1100	500 to 5000
CCOc1ccc([C@@H](NC(=O)C2C3COc4ccc(F)cc4C32)C(F)F)cn1 (stereo partly drawn) [Example A14, exo-N-[(1R)-1-(6-ethoxypyridin-3-yl)-2,2-difluoroethyl]-6-fluoro-1,1a,2,7b-tetrahydrocyclopropa[c][1]benzopyran-1-carboxamide]	1100	500 to 5000
CCOc1ccc([C@H](CF)NC(=O)C2C3COc4ccc(F)cc4C32)cn1 (stereo partly drawn) [Example A15, exo-N-[(1R)-1-(6-ethoxypyridin-3-yl)-2-fluoroethyl]-6-fluoro-1,1a,2,7b-tetrahydrocyclopropa[c][1]benzopyran-1-carboxamide]	1500	500 to 5000
COc1cc([C@H](CF)NC(=O)C2C3COc4ccc(F)cc4C32)ccn1 (stereo partly drawn) [Example A16, exo-6-fluoro-N-[(1R)-2-fluoro-1-(2-methoxypyridin-4-yl)ethyl]-1,1a,2,7b-tetrahydrocyclopropa[c][1]benzopyran-1-carboxamide]		500 to 5000
COc1cccc(OC)c1CNC(=O)C1C2COc3ccccc3C21 (stereo not drawn) [Example A17, exo-N-[(2,6-dimethoxyphenyl)methyl]-1,1a,2,7b-tetrahydrocyclopropa[c][1]benzopyran-1-carboxamide]	1100	500 to 5000
CC(C)(NC(=O)C1C2COc3ccc(F)cc3C21)c1cccc(Cl)c1 (stereo not drawn) [Example A18, exo-N-[2-(3-chlorophenyl)propan-2-yl]-6-fluoro-1,1a,2,7b-tetrahydrocyclopropa[c][1]benzopyran-1-carboxamide]	2500	500 to 5000
O=C(N[C@H]1CCOc2cc(F)c(F)cc21)C1C2COc3ccccc3C21 (stereo partly drawn) [Example A19, exo-N-[(4S)-6,7-difluoro-3,4-dihydro-2H-1-benzopyran-4-yl]-1,1a,2,7b-tetrahydrocyclopropa[c][1]benzopyran-1-carboxamide]	1600	500 to 5000
O=C(N[C@@H](C(F)F)C1CCCCC1)C1C2COc3ccccc3C21 (stereo partly drawn) [Example A20, exo-N-[(1R)-1-cyclohexyl-2,2-difluoroethyl]-1,1a,2,7b-tetrahydrocyclopropa[c][1]benzopyran-1-carboxamide]	570	500 to 5000
CCOc1ccc([C@H](COC)NC(=O)C2C3Oc4ccccc4C32)cc1 (stereo partly drawn) [Example B1, exo-N-[(1R)-1-(4-ethoxyphenyl)-2-methoxyethyl]-1a,6b-dihydro-1H-cyclopropa[b][1]benzofuran-1-carboxamide]	1200	500 to 5000
CCOc1ccc([C@H](COC)NC(=O)C2C3Oc4ccccc4C32)cc1 (stereo partly drawn) [Example B2, exo-N-[(1R)-1-(4-ethoxyphenyl)-2-methoxyethyl]-1a,6b-dihydro-1H-cyclopropa[b][1]benzofuran-1-carboxamide]	1500	500 to 5000
CCOc1ccc([C@H](COC)NC(=O)C2C3Oc4ccccc4C32)cc1 (stereo partly drawn) [Example B3, exo-N-[(1R)-1-(4-ethoxyphenyl)-2-methoxyethyl]-1a,6b-dihydro-1H-cyclopropa[b][1]benzofuran-1-carboxamide]	470	100 to 500
CCOc1ccc([C@H](COC)NC(=O)C2C3Oc4ccc(F)cc4C32)cc1 (stereo partly drawn) [Example B4, exo-N-[(1R)-1-(4-ethoxyphenyl)-2-methoxyethyl]-5-fluoro-1a,6b-dihydro-1H-cyclopropa[b][1]benzofuran-1-carboxamide]	940	500 to 5000
CCOc1ccc([C@H](COC)NC(=O)C2C3Oc4ccc(F)cc4C32)cc1 (stereo partly drawn) [Example B5, exo-N-[(1R)-1-(4-ethoxyphenyl)-2-methoxyethyl]-5-fluoro-1a,6b-dihydro-1H-cyclopropa[b][1]benzofuran-1-carboxamide]	760	500 to 5000
CCOc1ccc([C@H](COC)NC(=O)C2C3Oc4c(Cl)cccc4C32)cc1 (stereo partly drawn) [Example B6, exo-3-chloro-N-[(1R)-1-(4-ethoxyphenyl)-2-methoxyethyl]-1a,6b-dihydro-1H-cyclopropa[b][1]benzofuran-1-carboxamide]		100 to 500
CCOc1ccc([C@H](COC)NC(=O)C2C3Oc4c(Cl)cccc4C32)cc1 (stereo partly drawn) [Example B7, exo-3-chloro-N-[(1R)-1-(4-ethoxyphenyl)-2-methoxyethyl]-1a,6b-dihydro-1H-cyclopropa[b][1]benzofuran-1-carboxamide]	480	100 to 500
CCOc1ccc([C@H](COC)NC(=O)C2C3Oc4c(Br)cccc4C32)cc1 (stereo partly drawn) [Example B8, exo-3-bromo-N-[(1R)-1-(4-ethoxyphenyl)-2-methoxyethyl]-1a,6b-dihydro-1H-cyclopropa[b][1]benzofuran-1-carboxamide]	280	100 to 500
CCOc1ccc([C@H](COC)NC(=O)C2C3Oc4c(Br)cccc4C32)cc1 (stereo partly drawn) [Example B9, exo-3-bromo-N-[(1R)-1-(4-ethoxyphenyl)-2-methoxyethyl]-1a,6b-dihydro-1H-cyclopropa[b][1]benzofuran-1-carboxamide]	390	100 to 500
